Source: PMC8156053, “Synthesis, Characterization, and In Vitro Insulin-Mimetic Activity Evaluation of Valine Schiff Base Coordination Compounds of Oxidovanadium(V)” (Biomedicines, 2021)
“And” between values parts separate entries of the source, which are not always exact repeats. Equal values may be shown once.

Experiments:
[1] = Solution stability over time in PBS by UV-Vis spectrophotometry; type: physicochemical; conditions: for decrease in the intensity of λmax: 2 × 10^−4 M in PBS pH 7.4, 37 °C; for stability in PBS: physiological pH (7.4), 37 °C
Method: Electronic absorption spectra for the 2 × 10^−4 M solution of the four oxidovanadium(V) complexes in PBS at pH 7.4 were recorded outright on the prepared solutions (designated as T 0 h in the histograms), after the preparation at 1 h (T 1 h), 3 h (T 3 h), 6 h (T 6 h), 9 h (T 9 h), and 24 h (T 24 h), respectively. The prepared solutions were incubated at 37 °C, and the readings were performed over the entire 500 ÷ 230 nm range using a microplate reader spectrophotometer TECAN Infinite M200Pro and a 96-well UV micro test plate. The data were expressed as the average ± SD of three independent measurements.

[2] = target: T1, α-Amylase from porcine pancreas (Sus scrofa, UniProt P00690); experiment: Inhibition of the α-amylase activity (DNS/starch); type: biochemical; conditions: 1.8 × 10^−2 and 2.0 × 10^−2 M, compared to DMSO
T1 construct: α-Amylase from porcine pancreas, bovine serum albumin (BSA); purchased SIGMA-Aldrich (Merck KGaA, Darmstadt, Germany); host or cells: porcine pancreas
T1 sequence (P00690 16-511): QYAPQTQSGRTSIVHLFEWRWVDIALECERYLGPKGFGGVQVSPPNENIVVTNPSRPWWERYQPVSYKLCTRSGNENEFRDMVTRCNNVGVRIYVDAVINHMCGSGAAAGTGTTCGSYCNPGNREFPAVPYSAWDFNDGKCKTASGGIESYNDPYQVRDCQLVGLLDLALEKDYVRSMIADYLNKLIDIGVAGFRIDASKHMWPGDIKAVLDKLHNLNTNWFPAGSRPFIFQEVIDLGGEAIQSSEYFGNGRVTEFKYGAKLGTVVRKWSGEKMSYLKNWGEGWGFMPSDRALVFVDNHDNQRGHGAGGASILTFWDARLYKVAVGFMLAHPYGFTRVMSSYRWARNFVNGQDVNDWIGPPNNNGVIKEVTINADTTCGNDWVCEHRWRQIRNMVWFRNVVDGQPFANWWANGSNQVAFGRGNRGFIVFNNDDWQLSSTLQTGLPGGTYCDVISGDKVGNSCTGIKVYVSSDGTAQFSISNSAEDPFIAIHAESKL
Method: The capacity of the obtained complexes to inhibit pancreatic α-amylase activity in vitro was analyzed using a slightly modified procedure of the one described by Apostolidis and Lee. Thus, 100 µL solution of complexes (1.8 ÷ 2.5 × 10^−2 M), 2.5 × 10^−2 M V^IVOSO4•3H2O, 2.5 × 10^−2 M acarbose (positive control) and 12.5% DMSO (negative control) in reaction buffer (2 × 10^−2 M sodium phosphate, pH 6.9 with 6 × 10^−3 M sodium chloride) were pre-exposed to 100 µL of 20 units/mL α-amylase in reaction buffer for 10 min at room temperature. Then, 100 µL of 1% starch solution in reaction buffer were added and the samples were incubated at room temperature for 10 min. The reaction was stopped with 200 µL of 3, 5-dinitrosalicylic acid (DNS). The samples were heated at 90 ÷ 95 °C for 10 min and then left to cool down at room temperature. The reaction mixture was further diluted with 4 mL of distilled water. As a control for the inhibitory effect of acarbose, a sample containing starch and enzyme was used. The yellow/orange color intensity was measured using the microplate reader TECAN Infinite M200Pro at 540 nm. The experiment was performed in triplicate. The blank (sample without starch and enzyme) absorbance was subtracted from the absorbance of all samples and the activity of α-amylase was expressed as % of DMSO (negative control).

[3] = target: T2, bovine serum albumin (BSA) (Bos taurus, UniProt P02769); experiment: Fluorescence quenching of serum albumin (Stern–Volmer); type: binding; conditions: for Stern–Volmer constant KSV: BSA 2 × 10^−6 M, PBS pH 7.4, emission 347 nm; for decrease of BSA fluorescence intensity: highest tested concentration (2.5 × 10^−5 M), 2 × 10^−6 M BSA, PBS pH 7.4, vs free BSA and BSA with DMSO; for collision quenching constant Kq (Kq = Ksv/τ0): τ0 = 10^−8 s
T2 construct: α-Amylase from porcine pancreas, bovine serum albumin (BSA); purchased SIGMA-Aldrich (Merck KGaA, Darmstadt, Germany)
Method: The capacity of the oxidovanadium(V) compounds to bind to bovine serum albumin (BSA) was monitored by fluorescence quenching assay. A solution of 2 × 10^−6 M BSA in PBS, pH 7.4, was incubated for 2 h at 37 b0C with each vanadium-based compound or V^IVOSO4•3H2O at increasing molar concentrations (1 × 10^−6 ÷ 2.5 × 10^−5 M) or with 0.025% DMSO (negative control). The samples were excited at 295 nm and the emission spectra of all BSA solutions were recorded in the 300 ÷ 450 nm range using a JASCO FP-750 spectrofluorometer. The final spectrum was the average of three recordings measured at a scanning speed of 250 nm/minute, with an excitation and emission bandwidth of 5 nm. […] In addition, by applying the Stern–Volmer equation [23], the mechanism by which the complexes bind to BSA was investigated as it is described in the Supplementary material.
The Stern–Volmer e quation
The Stern–Vol mer equation [1] is:
I0/I= 1+ Kqτ0[Q] = 1 + Ksv[Q], where: I0 = the fluor escence intensities of fr ee BS A solution at 347 nm, I = the fluorescence intensities of BS A solution at 347 nm in the presence of vanadium […]
[Q] = the concentration of vanadium co mplexes, τ0 = the fluorescence l ifetime of the biopolymer (10-8 s), Kq = the coll isi on quenching constant;
Ksv = the Stern-Volmer constant.
Stern–Vol mer plots of the B SA fluorescence quenching in t he prese nce of each compou nd are represented in Fig. S4, together with the ir linear best fit in which y = I0/I, x = [Q], a = slope of the li ne, […]
The fluorescence intensitie s are the average of three recordings measured at a scanning speed of 250 nm/min, with an excitation and emissio n bandwidth of 5 nm.

HepG2 cells = experiment: Cytotoxicity, XTT cell viability assay; type: cell-based, human; conditions: 1 × 10^−5 M, 24 h, compared to DMSO treated cells
Method: HepG2 cell line was purchased from American Type Culture Collection. The cells were grown in Dulbecco’s Modified Eagle’s Medium (DMEM) with 4.5‰ glucose, supplemented with 10% (v/v) fetal bovine serum, 100 units/mL penicillin, and 100 µg/mL streptomycin (complete medium). HepG2 cells were maintained at 37 °C in a 5% carbon dioxide incubator and were periodically sub-cultivated.
To determine the cytotoxic concentration of the synthesized oxidovanadium(V) complexes and V^IVOSO4•3H2O, HepG2 cells were incubated with increasing molar concentrations (1 × 10^−5 ÷ 3 × 10^−4 M) of compounds.
HepG2 cells (1.5 × 10^4 cells/mL) were seeded in complete medium on a 96-well cell culture plate and were incubated at 37 b0C, as previously described. […] Control cells were represented by cells exposed to free-complete medium and medium supplemented with 0.15% DMSO. The cytotoxicity of tested compounds on the HepG2 cell line was assessed by the 2, 3-bis-(2-methoxy-4-nitro-5-sulfophenyl)-2H-tetrazolium-5-carboxanilide) (XTT) cell viability assay. The method is based on the reduction of XTT, in the presence of phenazine methosulfate, to a water-soluble orange formazan derivative. The absorbance of the sample, due to the intensity of the orange color, which is proportional to the number of viable cells, was recorded at 450 nm using the Tecan Infinite M200Pro spectrophotometer.

insulin receptor (INS R) = experiment: Quantification of phosphorylated insulin receptor by immunoblotting in HepG2 cells; type: cell-based, human; conditions: 10^−7 M insulin
Method: To investigate the effect of oxidovanadium(V) complexes on insulin receptor (INS R) phosphorylation, HepG2 cells (1.0 × 10^5 cells/mL) were treated with 2.5 × 10^−5 M oxidovanadium(V) compounds, V^IVOSO4•3H2O, and 10^−7 M insulin (positive control) for 3 and 24 h, respectively. As negative controls, cells exposed to free-complete medium (negative control for treatment with V^IVOSO4•3H2O and insulin) and cells exposed to 0.0125% DMSO (negative control for treatment with complexes) were used.
After cell lysis, 50 µg of total protein was denatured by adding 1/5th volume of Laemmli’s buffer 6× (15% SDS, 0.01% bromophenol blue, 74% glycerol, 7.5 × 10^−2 M Tris, pH 6.8, 1/8th volume of 2-mercaptoethanol) followed by heating at 95 °C for 5 min. […]
The separated proteins were transferred (using a Trans-Blot Semi-Dry transfer cell, Bio-Rad) to a nitrocellulose membrane (0.45 µm, Bio-Rad), blocked with 1% BSA for 1 hour, and incubated overnight with the primary antibody: Mouse anti-insulin receptor-β chain (INS R-β) (1:500, Santa Cruz Biotechnology cat. No. sc-57342), rabbit anti-phosphorylated INS R-Y1162/3 (pINS R, 1:400, R&D Systems, Minneapolis, MN, USA cat. No. AF2507) and mouse anti-β-actin (1/2000, Bio-Rad cat. no. MCA5775GA). […] The data were expressed as the mean ± SD of two individual experiments performed in duplicate.

[4] = ratio of BSA quenching constants

T2 sequence (P02769 25-607): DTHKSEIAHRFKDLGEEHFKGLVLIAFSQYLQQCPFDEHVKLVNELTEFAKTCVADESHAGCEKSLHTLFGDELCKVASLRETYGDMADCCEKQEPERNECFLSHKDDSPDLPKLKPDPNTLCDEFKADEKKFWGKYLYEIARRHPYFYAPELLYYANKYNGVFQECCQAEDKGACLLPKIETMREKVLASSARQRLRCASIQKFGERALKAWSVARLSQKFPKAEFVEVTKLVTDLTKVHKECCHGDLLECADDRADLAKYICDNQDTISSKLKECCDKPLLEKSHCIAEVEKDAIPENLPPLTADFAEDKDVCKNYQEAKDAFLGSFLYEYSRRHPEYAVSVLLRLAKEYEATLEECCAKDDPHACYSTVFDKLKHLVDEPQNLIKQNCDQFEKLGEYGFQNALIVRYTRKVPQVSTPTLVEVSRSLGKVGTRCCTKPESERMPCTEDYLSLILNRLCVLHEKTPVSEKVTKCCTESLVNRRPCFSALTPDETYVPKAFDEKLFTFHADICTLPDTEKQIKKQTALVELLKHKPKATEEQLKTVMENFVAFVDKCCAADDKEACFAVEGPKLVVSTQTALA

Compound | decrease in the intensity of λmax ([1]; 1 h vs T 0 h) | decrease in the intensity of λmax ([1]; 3 h vs T 0 h) | decrease in the intensity of λmax ([1]; 6 h vs T 0 h) | decrease in the intensity of λmax ([1]; 9 h vs T 0 h) | decrease in the intensity of λmax ([1]; 24 h vs T 0 h) | stability in PBS [1] | inhibitory effect on α-amylase activity [2] | Stern–Volmer constant KSV [3] [M⁻¹] | decrease of BSA fluorescence intensity [3] | Kq(1a)/Kq(1b) [3, 4] | collision quenching constant Kq (Kq = Ksv/τ0) [3] [M⁻¹ s⁻¹] | increase of α-amylase enzyme activity [2] [%] | Kq(2a)/Kq(1a) [3, 4] | Kq(2a)/Kq(2b) [3, 4] | Kq(2b)/Kq(1b) [3, 4] | reduction of HepG2 viability (HepG2 cells) [%] | increase of INS R phosphorylation (insulin receptor (INS R); 3 h, HepG2, compared to cells exposed to free-complete medium) | INS R phosphorylation (insulin receptor (INS R); 24 h, HepG2, compared to control cells)
CC(C)[C@H]1N=Cc2ccccc2[O][V](=[O])([O][V]2(=[O])[O]C(=O)[C@@H](C(C)C)N=Cc3ccccc3[O]2)[O]C1=O.O (some centres unmarked) [1a, [{V^VO(R-salval)(H2O)}(μ2-O){V^VO(R-salval)}]] | about 10% | about 25% | about 40% | about 50% | about 70% | stable in PBS at physiological pH and temperature for up to three hours | more than 18% | 80700 | about 60% | 1.34 | 8.07e+12 | – | – | – | – | – | – | –
CC(C)[C@H](N=Cc1ccccc1[O-])C(=O)[O-].CC(C)[C@H](N=Cc1ccccc1[O-])C(=O)[O-].O.[O]=[V+2][O][V+2]=[O] [1b, [{V^VO(S-salval)(H2O)}(μ2-O){V^VO(S-salval)}]] | about 10% | about 25% | about 40% | about 50% | about 70% | stable in PBS at physiological pH and temperature for up to three hours | more than 18% | 60100 | about 60% | – | 6.01e+12 | – | – | – | – | – | – | –
CO.CO.COc1cccc2c1[O][V](=[O])([O][V]1(=[O])[O]C(=O)[C@@H](C(C)C)N=Cc3cccc(OC)c3[O]1)[O]C(=O)[C@@H](C(C)C)N=C2 (some centres unmarked) [2a, [{V^VO(R-vanval)(CH3OH)}2(μ2-O)]] | less than 10% | less than 20% | ~20% | ~30% | ~30% | stable in PBS at physiological pH and temperature for up to three hours | – | 171800 | ~80% | – | 1.718e+13 | 35 | 2 and 2.12 | 0.69 | – | – | – | –
CO.CO.COc1cccc(C=N[C@H](C(=O)[O-])C(C)C)c1[O-].COc1cccc(C=N[C@H](C(=O)[O-])C(C)C)c1[O-].[O]=[V+2][O][V+2]=[O] [2b, [{V^VO(S-vanval)(CH3OH)}2(μ2-O)]] | less than 10% | less than 20% | ~20% | ~30% | ~30% | stable in PBS at physiological pH and temperature for up to three hours | – | 248900 | ~80% | – | 2.489e+13 | 35 | – | – | 4 and 4.14 | – | – | –
N.N.[Cl][Pt][Cl] [cisplatin] | – | – | – | – | – | – | – | – | – | – | – | – | – | – | – | 44 | – | –
insulin: human recombinant insulin, positive control for INS R phosphorylation | – | – | – | – | – | – | – | – | – | – | – | – | – | – | – | – | about 80% | reduced and insignificant
